The values below come from patent publication US9682955B2, “Quinazoline derivatives useful as CB-1 inverse agonists” (Janssen Pharmaceutica NV, priority 2014, dated 2017).

Experiment [1] has as its target Human CB1R (Cannabanoid receptor 1) (Homo sapiens (Human), UniProt P21554). As to the kind of experiment: CB-1 in vitro cAMP assay (HTRF). Type of experiment: cell-based. Particulars: mean where tested more than once. The method, boiled down: (§1)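 HEK-293 cells stably transfected with the human receptor, plated overnight at 4E5 cells/mL. Compounds given as 1/3 serial dilutions from 10 mM DMSO stocks. Stimulation in HBSS/5 mM HEPES/0.1% BSA with 0.5 mM IBMX and forskolin (1.5 μM in buffer); cAMP measured by competitive HTRF immunoassay (d2-cAMP, cryptate anti-cAMP) against a cAMP standard curve.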

Experiment [2] addresses Human CB2R (Cannabanoid receptor 2) (Homo sapiens (Human), UniProt P34972). Put plainly: CB-2 in vitro cAMP assay (HTRF). Type of experiment: cell-based. Particulars: mean where tested more than once. The method, boiled down:
as §1

pEC50: −log10 of the molar value.

Human CB1R (Cannabanoid receptor 1), sequence (P21554 whole entry): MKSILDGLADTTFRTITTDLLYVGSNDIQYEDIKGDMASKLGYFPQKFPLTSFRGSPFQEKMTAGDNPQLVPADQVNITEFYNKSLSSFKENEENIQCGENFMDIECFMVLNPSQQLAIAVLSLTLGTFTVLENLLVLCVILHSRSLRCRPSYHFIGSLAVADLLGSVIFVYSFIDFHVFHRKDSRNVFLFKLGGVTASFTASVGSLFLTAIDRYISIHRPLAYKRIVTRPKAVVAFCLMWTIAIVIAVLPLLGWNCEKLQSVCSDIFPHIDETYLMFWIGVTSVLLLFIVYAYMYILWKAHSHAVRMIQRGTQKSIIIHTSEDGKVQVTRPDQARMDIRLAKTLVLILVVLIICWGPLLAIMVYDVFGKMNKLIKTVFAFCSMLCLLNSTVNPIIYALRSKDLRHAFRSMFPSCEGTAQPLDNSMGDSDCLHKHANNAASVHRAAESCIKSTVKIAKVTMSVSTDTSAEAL
Human CB2R (Cannabanoid receptor 2), sequence (P34972 whole entry): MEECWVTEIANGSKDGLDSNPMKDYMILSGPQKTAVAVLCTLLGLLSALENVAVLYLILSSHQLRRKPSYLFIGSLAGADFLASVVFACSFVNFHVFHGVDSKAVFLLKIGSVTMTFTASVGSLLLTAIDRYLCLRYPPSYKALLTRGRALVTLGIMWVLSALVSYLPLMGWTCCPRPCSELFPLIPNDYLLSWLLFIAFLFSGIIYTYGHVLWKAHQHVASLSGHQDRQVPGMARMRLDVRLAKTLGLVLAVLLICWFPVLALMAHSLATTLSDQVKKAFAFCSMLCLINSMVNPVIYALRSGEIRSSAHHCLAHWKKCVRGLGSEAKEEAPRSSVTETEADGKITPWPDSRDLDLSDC

Turning to `FC(F)(F)c1cccc(CNc2ncnc3ccc(C(c4ccc(Cl)cc4)c4ccc(Cl)cc4)cc23)c1` [Compound #136, 6-(bis(4-chlorophenyl)methyl)-N-(3-(trifluoromethyl)benzyl)quinazolin-4-amine], the results for the pEC50 in experiment [1] and in experiment [2] were 8.52 and less than 5.00, respectively.

On to `Clc1ccc(C(c2ccc(Cl)cc2)c2ccc3ncnc(NC4CCN(c5ccccc5)CC4)c3c2)cc1` [Compound #137, 6-(bis(4-chlorophenyl)methyl)-N-(1-phenylpiperidin-4-yl)quinazolin-4-amine], for which the figures for the pEC50 in experiment [1] and in experiment [2] were 8.70 and 6.55, respectively.

For `Clc1ccc(C(c2ccc(Cl)cc2)c2ccc3ncnc(NC4CCN(c5ncccn5)CC4)c3c2)cc1` [Compound #139, 6-(bis(4-chlorophenyl)methyl)-N-(1-(pyrimidin-2-yl)piperidin-4-yl)quinazolin-4-amine], the pEC50 in experiment [1] is 8.70; in experiment [2] it was 6.11.

Take `O=S(=O)(c1ccc(Nc2ncnc3ccc(C(c4ccc(Cl)cc4)c4nccs4)cc23)cc1)C(F)(F)F` (stereo not drawn) [Compound #142, 6-((4-chlorophenyl)(thiazol-2-yl)methyl)-N-(4-((trifluoromethyl)sulfonyl)phenyl)quinazolin-4-amine]: the figures for the pEC50 in experiment [1] and in experiment [2] were 6.24 and less than 5.00, respectively.

For `FC(F)(F)c1ccc(Nc2ncnc3ccc(C(c4ccc(Cl)cc4)c4ccc(Cl)cc4)cc23)cc1` [Compound #143, 6-(bis(4-chlorophenyl)methyl)-N-(4-(trifluoromethyl)phenyl)quinazolin-4-amine], the pEC50 is 7.04 in experiment [1] and less than 5.00 in experiment [2].

Turning to `FC(F)(F)c1ccc(Nc2ncnc3ccc(C(c4ccc(Cl)cc4)c4nccs4)cc23)cc1` (stereo not drawn) [Compound #144, 6-((4-chlorophenyl)(thiazol-2-yl)methyl)-N-(4-(trifluoromethyl)phenyl)quinazolin-4-amine], the values for the pEC50 in experiment [1] and in experiment [2] were 6.79 and 5.56, respectively.

As to `O=S(=O)(N1CCC(Nc2ncnc3ccc(C(c4ccc(Cl)cc4)c4ccc(Cl)cc4)cc23)CC1)C(F)(F)F` [Compound #145, 6-(bis(4-chlorophenyl)methyl)-N-(1-((trifluoromethyl)sulfonyl)piperidin-4-yl)quinazolin-4-amine], the pEC50 in experiment [1] is 8.30; in experiment [2] it was 6.10.

Take `O=S(=O)(N1CCC(Nc2ncnc3ccc(C(c4ccc(Cl)cc4)c4nccs4)cc23)CC1)C(F)(F)F` (stereo not drawn) [Compound #146, 6-((4-chlorophenyl)(thiazol-2-yl)methyl)-N-(1-((trifluoromethyl)sulfonyl)piperidin-4-yl)quinazolin-4-amine]: the pEC50 is 8.10 in experiment [1] and 6.01 in experiment [2].

For `O=C(O)c1cccc(CN2CCC(Nc3ncnc4ccc(C(c5ccc(Cl)cc5)c5ccc(Cl)cc5)cc34)C2)c1` (stereo not drawn) [compound 17, 3-((3-(6-(bis(4-chlorophenyl)methyl)quinazolin-4-ylamino)pyrrolidin-1-yl)methyl)benzoic acid], the negative-log EC50 (pEC50) in experiment [1] is 5.40; in experiment [2] it was 5.12.

With `O=C(O)c1ccccc1CN1CCC(Nc2ncnc3ccc(C(c4ccc(Cl)cc4)c4ccc(Cl)cc4)cc23)CC1` [compound 21, 2-((4-(6-(bis(4-chlorophenyl)methyl)quinazolin-4-ylamino)piperidin-1-yl)methyl)benzoic acid], the pEC50 in experiment [1] is 5.32; in experiment [2], 5.33.

In the case of `Oc1ccc(CN2CCC(Nc3ncnc4ccc(C(c5ccc(Cl)cc5)c5ccc(Cl)cc5)cc34)CC2)cc1` [compound 27, 4-((4-(6-(bis(4-chlorophenyl)methyl)quinazolin-4-ylamino)piperidin-1-yl)methyl)phenol], the pEC50 in experiment [1] is 6.92; in experiment [2] it was less than 5.00.

As to `O=C(O)c1ccc(CN2CCC(Nc3ncnc4ccc(C(c5ccc(Cl)cc5)c5ccc(Cl)cc5)cc34)CC2)s1` [compound 34, 5-((4-(6-(bis(4-chlorophenyl)methyl)quinazolin-4-ylamino)piperidin-1-yl)methyl)thiophene-2-carboxylic acid], the results for the negative-log EC50 (pEC50) in experiment [1] and in experiment [2] were 6.75 and less than 5.00, respectively.

Take `NC(=O)c1ccc(CN2CCC(Nc3ncnc4ccc(C(c5ccc(Cl)cc5)c5ccc(Cl)cc5)cc34)CC2)cc1` [compound 38, 4-((4-(6-(bis(4-chlorophenyl)methyl)quinazolin-4-ylamino)piperidin-1-yl)methyl)benzamide]: the pEC50 in experiment [1] is 6.72; in experiment [2], 5.45.

As to `O=C(NC(CO)(CO)CO)c1ccc(N2CCC(Nc3ncnc4ccc(C(c5ccc(Cl)cc5)c5ccc(Cl)cc5)cc34)CC2)cc1` [compound 42], the pEC50 in experiment [1] is 6.74; in experiment [2], 6.67.

`O=C(O)c1ccc(CN2CCC(Nc3ncnc4ccc(C(c5ccc(Cl)cc5)c5ccc(Cl)cc5)cc34)CC2)cc1` [compound 44, 4-((4-(6-(bis(4-chlorophenyl)methyl)quinazolin-4-ylamino)piperidin-1-yl)methyl)benzoic acid]: the pEC50 in experiment [1] is 6.24; in experiment [2], less than 5.00.

Consider `O=C(O)COc1nc(NCc2cccc(C(F)(F)F)c2)c2cc(C(c3ccc(Cl)cc3)c3ccc(Cl)cc3)ccc2n1` [compound 51, 2-((6-(bis(4-chlorophenyl)methyl)-4-((3-(trifluoromethyl)benzyl)amino)quinazolin-2-yl)oxy)acetic acid], for which the pEC50 is 6.23 in experiment [1] and 5.48 in experiment [2].

As for `NC(=O)c1ccc(CNc2ncnc3ccc(C(c4ccc(Cl)cc4)c4ccc(Cl)cc4)cc23)cc1` [compound 56, 4-((6-(bis(4-chlorophenyl)methyl)quinazolin-4-ylamino)methyl)benzamide], the results for the pEC50 in experiment [1] and in experiment [2] were 6.35 and 5.04, respectively.

In the case of `O=C(O)c1ccc(CNc2ncnc3ccc(C(c4ccc(Cl)cc4)c4ccc(Cl)cc4)cc23)cc1` [compound 60, 4-((6-(bis(4-chlorophenyl)methyl)quinazolin-4-ylamino)methyl)benzoic acid], the pEC50 was 5.28 in experiment [1] and less than 5.00 in experiment [2].

Take `COC(=O)c1ccc(CNc2ncnc3ccc(C(c4ccc(Cl)cc4)c4ccc(Cl)cc4)cc23)cc1` [compound 61, methyl 4-((6-(bis(4-chlorophenyl)methyl)quinazolin-4-ylamino)methyl)benzoate]: the pEC50 is 7.70 in experiment [1] and less than 5.00 in experiment [2].

Take `Fc1cccc(CNc2ncnc3ccc(C(c4ccc(Cl)cc4)c4ccc(Cl)cc4)cc23)c1` [compound 63, 6-(bis(4-chlorophenyl)methyl)-N-(3-fluorobenzyl)quinazolin-4-amine]: the pEC50 in experiment [1] is 8.00; in experiment [2] it was 5.92.

Consider `O=C(CC(=O)N1CCC(Nc2ncnc3ccc(C(c4ccc(Cl)cc4)c4ccc(Cl)cc4)cc23)CC1)NCCO` [compound 82, 3-(4-(6-(bis(4-chlorophenyl)methyl)quinazolin-4-ylamino)piperidin-1-yl)-N-(2-hydroxyethyl)-3-oxopropanamide], for which the pEC50 was 5.24 in experiment [1] and less than 5.00 in experiment [2].

Turning to `O=C(NCCO)c1cccc(N2CCC(Nc3ncnc4ccc(C(c5ccc(Cl)cc5)c5ccc(Cl)cc5)cc34)CC2)c1` [compound 83, 3-(4-(6-(bis(4-chlorophenyl)methyl)quinazolin-4-ylamino)piperidin-1-yl)-N-(2-hydroxyethyl)benzamide], the figures for the pEC50 in experiment [1] and in experiment [2] were 7.07 and 5.46, respectively.

For `NC(=O)CC(=O)N1CCC(Nc2ncnc3ccc(C(c4ccc(Cl)cc4)c4ccc(Cl)cc4)cc23)CC1` [compound 87, 3-(4-(6-(bis(4-chlorophenyl)methyl)quinazolin-4-ylamino)piperidin-1-yl)-3-oxopropanamide], the pEC50 in experiment [1] was 5.54; in experiment [2] it was less than 5.00.

With `O=C(O)CC(=O)N1CCC(Nc2ncnc3ccc(C(c4ccc(Cl)cc4)c4ccc(Cl)cc4)cc23)CC1` [compound 88, 3-(4-(6-(bis(4-chlorophenyl)methyl)quinazolin-4-ylamino)piperidin-1-yl)-3-oxopropanoic acid], the pEC50 in experiment [1] was 6.10; in experiment [2] it was less than 5.00.

Turning to `CCOC(=O)CC(=O)N1CCC(Nc2ncnc3ccc(C(c4ccc(Cl)cc4)c4ccc(Cl)cc4)cc23)CC1` [compound 89, ethyl 3-(4-(6-(bis(4-chlorophenyl)methyl)quinazolin-4-ylamino)piperidin-1-yl)-3-oxopropanoate], the pEC50 was 7.60 in experiment [1] and 5.74 in experiment [2].

As for `O=C(O)c1cccc(N2CCC(Nc3ncnc4ccc(C(c5ccc(Cl)cc5)c5ccc(Cl)cc5)cc34)CC2)c1` [compound 95, 3-(4-(6-(bis(4-chlorophenyl)methyl)quinazolin-4-ylamino)piperidin-1-yl)benzoic acid], the results for the pEC50 in experiment [1] and in experiment [2] were 6.09 and 5.50, respectively.

For `NC(=O)c1cccc(N2CCC(Nc3ncnc4ccc(C(c5ccc(Cl)cc5)c5ccc(Cl)cc5)cc34)CC2)c1` [compound 96, 3-(4-(6-(bis(4-chlorophenyl)methyl)quinazolin-4-ylamino)piperidin-1-yl)benzamide], the pEC50 is 7.64 in experiment [1] and 6.66 in experiment [2].

In the case of `COC(=O)c1cccc(N2CCC(Nc3ncnc4ccc(C(c5ccc(Cl)cc5)c5ccc(Cl)cc5)cc34)CC2)c1` [compound 97, methyl 3-(4-(6-(bis(4-chlorophenyl)methyl)quinazolin-4-ylamino)piperidin-1-yl)benzoate], the pEC50 in experiment [1] is 7.08; in experiment [2] it was less than 5.00.

Consider `O=C(O)c1cccc(S(=O)(=O)N2CCC(Nc3ncnc4ccc(C(c5ccc(Cl)cc5)c5ccc(Cl)cc5)cc34)CC2)c1` [compound 101, 3-(4-(6-(bis(4-chlorophenyl)methyl)quinazolin-4-ylamino)piperidin-1-ylsulfonyl)benzoic acid], for which the pEC50 in experiment [1] was 6.97; in experiment [2], 5.41.

As to `O=S(=O)(c1ccccc1)N1CCC(Nc2ncnc3ccc(C(c4ccc(Cl)cc4)c4ccc(Cl)cc4)cc23)CC1` [compound 109, 6-(bis(4-chlorophenyl)methyl)-N-(1-(phenylsulfonyl)piperidin-4-yl)quinazolin-4-amine], the pEC50 was 8.40 in experiment [1] and less than 5.00 in experiment [2].
